Assay results published in ChEMBL document CHEMBL1145961, “Metabolism-directed optimization of 3-aminopyrazinone acetamide thrombin inhibitors. Development of an orally bioavailable series containing P1 and P3 pyridines” (J Med Chem, 2003).

Assays:
[1] = Concentration required to double the activated partial thromboplastin time (2x APTT) in human plasma; type: functional
Serine protease 1 = Serine protease 1 (Homo sapiens, UniProt P07477); assay: Inhibitory constant against human trypsin
Prothrombin = Prothrombin (Homo sapiens, UniProt P00734); assay: Inhibitory constant against thrombin (IIa)
[2] = (§1) Plasma half-life in dog after peroral administration was evaluated; type: ADME, organism-based, Canis lupus familiaris; conditions: plasma, po
[3] = Maximum plasma concentration in dog after administration of 1 mg/kg dose of compound; type: ADME, organism-based, Canis lupus familiaris; set-up: dose 1 mg/kg
[4] = Oral bioavailability in rat (dose 10 mg/kg); type: ADME, organism-based; conditions: in vivo
[5] = Maximum plasma concentration in rat after peroral administration of 10 mg/kg dose of compound; type: ADME, organism-based; set-up: dose 10 mg/kg, route oral; conditions: po
[6] = Oral bioavailability in Rhesus monkey (dose 5 mg/kg); type: ADME, organism-based, Macaca mulatta; conditions: in vivo
in vivo = conditions: dog, iv, 1 mg/kg
[7] = Plasma half-life ([…] mg/kg) in rat after intravenous administration; type: ADME, organism-based; conditions: 10 mg/kg
[8] = Plasma half-life (5 mg/kg) in rhesus monkey after intravenous administration; type: ADME, organism-based, Macaca mulatta
[9] = Maximum plasma concentration in rhesus monkey after peroral administration of 5 mg/kg dose of compound; type: ADME, organism-based, Macaca mulatta; set-up: dose 5 mg/kg, route oral; conditions: po
[10] = Oral bioavailability in dog after administration of 1 mg/kg of compound; type: ADME, organism-based, Canis lupus familiaris; conditions: in vivo
[11] = Maximum plasma concentration in dog after peroral administration of 1 mg/kg dose of compound; type: ADME, organism-based, Canis lupus familiaris; set-up: dose 1 mg/kg, route oral; conditions: po
[12] = Plasma half-life (5 mg/kg) in african green monkey after intravenous administration; type: ADME, organism-based; conditions: chlorocebus aethiops
Canis familiaris = assay: as §1; type: ADME, organism-based, Canis lupus familiaris; conditions: in vivo, po
[13] = Plasma half-life (0.65 mg/kg) dog after intravenous administration; type: ADME, organism-based, Canis lupus familiaris
[14] = Oral bioavailability in dog after administration of 0.65 mg/kg of compound; type: ADME, organism-based, Canis lupus familiaris; conditions: in vivo
[15] = Oral bioavailability in african green monkey after administration of 5 mg/kg of compound; type: ADME, organism-based; conditions: chlorocebus aethiops, in vivo
[16] = Maximum plasma concentration in dog after peroral administration of 0.65 mg/kg dose of compound; type: ADME, organism-based, Canis lupus familiaris; set-up: dose 0.65 mg/kg, route oral; conditions: po
[17] = Maximum plasma concentration in african green monkey after peroral administration of 5 mg/kg dose of compound; type: ADME, organism-based; set-up: dose 5 mg/kg, route oral; conditions: chlorocebus aethiops, po
[18] = Maximum plasma concentration in dog after administration of 0.7 mg/kg dose of compound; type: ADME, organism-based, Canis lupus familiaris; set-up: dose 0.7 mg/kg
[19] = Maximum plasma concentration in dog after administration of 0.5 mg/kg dose of compound; type: ADME, organism-based, Canis lupus familiaris; set-up: dose 0.5 mg/kg

Sequence of Serine protease 1 (P07477 whole entry): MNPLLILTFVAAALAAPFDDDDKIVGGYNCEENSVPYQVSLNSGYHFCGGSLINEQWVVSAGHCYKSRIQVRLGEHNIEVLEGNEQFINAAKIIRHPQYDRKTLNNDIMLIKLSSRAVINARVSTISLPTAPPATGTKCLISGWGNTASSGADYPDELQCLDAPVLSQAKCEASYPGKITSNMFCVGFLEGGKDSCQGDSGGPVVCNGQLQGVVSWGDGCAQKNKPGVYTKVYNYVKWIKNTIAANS

Row | Compound | 2x aPTT [1] [µM] | Ki (Serine protease 1) [µM] | Ki (Prothrombin) [µM] | half-life [2] [h] | Cmax [3] [nM] | further results
1 | Cc1cnc(NCC(F)(F)c2ccccn2)c(=O)n1CC(=O)NCc1ccccn1 | 2.2 | > 1000 | 0.015 | – | – | –
2 | O=C(Cn1c(Cl)cnc(NCC(F)(F)c2ccccn2)c1=O)NCc1ncccc1Cl | 1.41 | 567 | 0.0079 | 5.7 | 62 | –
3 | Cc1ccnc(CNC(=O)Cn2c(C)cnc(NCC(F)(F)c3ccccc3)c2=O)c1 | 1.7 | 270 | 0.0048 | – | – | –
4 | Cc1nc(N)ccc1CNC(=O)Cn1c(C)cnc(NCCc2ccncc2)c1=O | 0.45 | 4.6 | 0.0016 | – | – | –
5 | Cc1nc(N)ccc1CNC(=O)Cn1c(C)cnc(NCC(C)(C)c2ccccc2)c1=O | 0.5 | 0.8 | 0.0011 | – | – | –
6 | Cc1cnc(NCC(F)(F)c2ccccn2)c(=O)n1CC(=O)NCc1ncccc1F | 0.67 | 252 | – | 3.5 | 5640 | bioavailability [4]: 55%; Cmax [5]: 2160 nM; bioavailability [6]: 12%; half-life (in vivo): 3.5 h; half-life [7]: 0.57 h; half-life [8]: 0.99 h; Cmax [9]: 1100 nM; bioavailability [10]: 87%; Cmax [11]: 5640 nM
7 | O=C(Cn1c(Cl)cnc(NCC(F)(F)c2ccccn2)c1=O)NCc1ncccc1F [DPOC-4088] | 0.78 | 202 | 0.0052 | – | 1380 | half-life [12]: 1.6 h; T1/2 (Canis familiaris): 6.6 h; bioavailability [4]: 23%; Cmax [5]: 1060 nM; bioavailability [6]: 5.2%; half-life [13]: 4.48 h; bioavailability [14]: 66%; bioavailability [15]: 66%; half-life [7]: 0.42 h; half-life [8]: 0.73 h; Cmax [9]: 310 nM; Cmax [16]: 1160 nM; Cmax [17]: 1710 nM
8 | Cc1ccnc(CNC(=O)Cn2c(C#N)cnc(NCC(F)(F)c3ccccn3)c2=O)c1F | 0.31 | 61 | 0.0004 | 2.4 | 1700 | –
9 | COc1cccnc1CNC(=O)Cn1c(Cl)cnc(NCC(F)(F)c2ccccn2)c1=O | 2.19 | 706 | 0.015 | 2.3 | 900 | –
10 | Cc1ccnc(CNC(=O)Cn2c(C)cnc(NCC(F)(F)c3ccccc3)c2=O)c1F | 0.72 | 40 | 0.0012 | 0.7 | 1830 | –
11 | Cc1nc(N)ccc1CNC(=O)Cn1c(C)cnc(NCCc2ccccc2)c1=O [L-375378] | 0.41 | – | – | – | – | –
12 | Cc1nc(N)ccc1CNC(=O)Cn1c(C)cnc(NCC(C)c2ccccc2)c1=O (centres undefined) | 0.61 | 1.6 | 0.0011 | – | – | –
13 | Cc1ccnc(CNC(=O)Cn2c(C)cnc(NCC(F)(F)c3ccccn3)c2=O)c1F | 0.48 | 118 | – | 1 | – | Cmax [18]: 1660 nM
14 | Cc1ccnc(CNC(=O)Cn2c(C)cnc(NCC(F)(F)c3ccccn3)c2=O)c1 | 0.59 | 431 | 0.0028 | 2.4 | 4120 | –
15 | Cc1ccnc(CNC(=O)Cn2c(Cl)cnc(NCC(F)(F)c3ccccn3)c2=O)c1 | 0.91 | 429 | 0.0053 | 2.1 | 2320 | –
16 | Cc1ncccc1CNC(=O)Cn1c(C)cnc(NCCc2ccccc2)c1=O | – | > 100 | 0.28 | – | – | –
17 | Cc1cnc(NCC(F)(F)c2ccccc2)c(=O)n1CC(=O)NCc1ncccc1F | 1.26 | 501 | 0.0068 | 2 | 3730 | –
18 | N#Cc1cnc(NCC(F)(F)c2ccccn2)c(=O)n1CC(=O)NCc1ncccc1F | 0.41 | 213 | 0.0023 | 9.7 | 1170 | –
19 | O=C(Cn1c(C(F)(F)F)cnc(NCC(F)(F)c2ccccn2)c1=O)NCc1ncccc1F | – | 136 | 0.044 | – | – | –
20 | Cc1cnc(NCCc2ccccc2)c(=O)n1CC(=O)NCc1ccncc1 | – | 251 | 17 | – | – | –
21 | O=C(Cn1ccnc(NCC(F)(F)c2ccccn2)c1=O)NCc1ncccc1F | – | > 1000 | 0.14 | – | – | –
22 | Cc1nc(N)ccc1CNC(=O)Cn1c(C)cnc(NCC(F)(F)c2ccccn2)c1=O | 0.2 | 0.8 | – | – | – | –
23 | Cc1ccnc(CNC(=O)Cn2c(Cl)cnc(NCC(F)(F)c3ccccn3)c2=O)c1F | 0.48 | 80 | 0.0009 | 3.2 | 670 | –
24 | Cc1nc(N)ccc1CNC(=O)Cn1c(C)cnc(NCC(F)(F)c2ccccc2)c1=O | – | 0.855 | – | – | – | –
25 | COc1ccnc(CNC(=O)Cn2c(Cl)cnc(NCC(F)(F)c3ccccn3)c2=O)c1 | 0.71 | 665 | 0.0036 | 2 | – | Cmax [19]: 530 nM
26 | Cc1cnc(NCCc2ccccc2)c(=O)n1CC(=O)NCc1cccnc1 | – | 898 | 1.2 | – | – | –
27 | Cc1nc(N)ccc1CNC(=O)Cn1c(C)cnc(NCCc2cccnc2)c1=O | 0.28 | 3.8 | 0.00054 | – | – | –
28 | Cc1cnc(NCC(F)(F)c2ccccc2)c(=O)n1CC(=O)NCc1cc(Cl)ccn1 | 0.89 | 47 | 0.0013 | – | – | –
29 | Cc1nc(N)ccc1CNC(=O)Cn1c(C)cnc(NCCc2ccccn2)c1=O | 0.31 | 3.6 | 0.00027 | – | – | –
30 | Cc1cnc(NCCc2ccccc2)c(=O)n1CC(=O)NCc1ccccn1 | – | > 1000 | 0.39 | – | – | –
